One data set deals with rats. The experiment in a line: reflex inhibition and antinociception after intravenous and intrathecal injection in rats. As to conditions: for antinociceptive efficacy: after intrathecal injection; for reflex inhibitory potency: intravenous and intrathecal injection. In kind it is in vivo.
For data set [1] the following is noted: cited from earlier work.
The conditions of data set [2]: compared with prediction and with morphine; cited from earlier work.
The next data set deals with δ receptors (Homo sapiens, UniProt P41143). The settings on record: binding studies; cited from earlier work.
In the next data set the target is κ receptors (Homo sapiens, UniProt P41145). The settings on record: binding studies; cited from earlier work.
The target in the next data set is µ receptors (Homo sapiens, UniProt P35372). The settings on record: binding studies; cited from earlier work.
For data set [3] the following is noted: pH of 7.4; relative to morphine; cited from earlier work.
For data set [4] the following is noted: more potent than morphine; cited from earlier work.
The test system of the next data set is mice. As to conditions: cited from earlier work.
For data set [5] the following is noted: more potent than morphine; cited from earlier work. This is another data set of the same source.
In data set [6] the test system is homogenate of bovine caudate nucleus. The settings on record: cited from earlier work.

Like-named read-outs stand apart in the source and are kept apart here.

Sequence of δ receptors (P41143 whole entry, looked up): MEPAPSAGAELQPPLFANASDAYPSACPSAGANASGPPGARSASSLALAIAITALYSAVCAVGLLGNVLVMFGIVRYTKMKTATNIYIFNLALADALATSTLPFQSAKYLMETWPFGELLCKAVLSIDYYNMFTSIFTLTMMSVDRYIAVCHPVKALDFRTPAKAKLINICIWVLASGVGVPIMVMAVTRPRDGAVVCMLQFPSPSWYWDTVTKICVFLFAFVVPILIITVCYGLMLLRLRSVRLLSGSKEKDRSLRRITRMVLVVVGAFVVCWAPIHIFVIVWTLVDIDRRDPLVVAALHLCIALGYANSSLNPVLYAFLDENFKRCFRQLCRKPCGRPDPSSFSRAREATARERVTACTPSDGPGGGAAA
Sequence of κ receptors (P41145 whole entry, looked up): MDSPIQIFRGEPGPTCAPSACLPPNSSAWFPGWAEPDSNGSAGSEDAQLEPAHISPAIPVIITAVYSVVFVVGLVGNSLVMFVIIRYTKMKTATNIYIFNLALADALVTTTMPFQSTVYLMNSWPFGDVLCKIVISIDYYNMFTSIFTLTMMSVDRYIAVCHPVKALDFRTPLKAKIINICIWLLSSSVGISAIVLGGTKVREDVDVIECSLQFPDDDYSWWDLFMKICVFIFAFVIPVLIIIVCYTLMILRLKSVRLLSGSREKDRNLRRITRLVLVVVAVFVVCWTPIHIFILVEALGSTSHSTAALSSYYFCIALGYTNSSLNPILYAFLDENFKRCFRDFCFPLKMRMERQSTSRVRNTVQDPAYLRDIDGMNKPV
Sequence of µ receptors (P35372 whole entry): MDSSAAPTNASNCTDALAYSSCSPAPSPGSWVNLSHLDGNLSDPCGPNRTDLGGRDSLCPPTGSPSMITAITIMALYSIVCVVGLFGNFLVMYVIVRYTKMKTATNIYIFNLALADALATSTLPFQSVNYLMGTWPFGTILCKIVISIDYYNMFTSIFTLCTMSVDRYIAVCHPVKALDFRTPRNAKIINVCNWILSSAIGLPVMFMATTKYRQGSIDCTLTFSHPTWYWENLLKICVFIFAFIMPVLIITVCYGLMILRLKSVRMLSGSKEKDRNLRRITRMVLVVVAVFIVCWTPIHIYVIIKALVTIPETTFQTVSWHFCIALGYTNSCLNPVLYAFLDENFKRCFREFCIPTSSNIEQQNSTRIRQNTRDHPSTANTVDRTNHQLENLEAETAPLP

`CN1CC[C@]23c4c5ccc(O)c4O[C@H]2[C@@H](NC(=O)c2cccnc2)CC[C@H]3[C@H]1C5` [7,8-dihydro-6α-nicotinoylaminomorphine]: in the data set with rats, the antinociceptive efficacy entry is given as “long-lasting antinociceptive efficacy” and the reflex inhibitory potency result is recorded as “strong reflex inhibitory potency”.

Regarding `COc1ccc2c3c1O[C@H]1[C@@H](NC(=O)c4cccnc4)CC[C@H]4[C@@H](C2)N(C)CC[C@@]341` [7,8-dihydro-6α-nicotinoylaminocodeine], in the data set with rats, the antinociceptive efficacy result is listed as “long-lasting antinociceptive efficacy” and the reflex inhibitory potency result is on record as “strong reflex inhibitory potency”.

`CN1CC[C@]23c4c5ccc(O[C@@H]6O[C@H](C(=O)O)[C@@H](O)[C@H](O)[C@H]6O)c4O[C@H]2[C@@H](O)C=C[C@H]3[C@H]1C5` [Example M-3-G]: the effect of microinjection result in data set [1] (microinjection directly into the periaquaductal grey) was “without effect”. In addition, the lipophilicity entry in data set [2] is on record as “far more lipophilic than predicted”. Further, the “affinity, δ receptors” value at δ receptors is given as “poor affinity”. Also, the “affinity, κ receptors” value at κ receptors was “poor affinity”. On µ receptors, the “affinity, µ receptors” value is given as “poor affinity”.

For `CN1CC[C@]23c4c5ccc(OC(=O)c6cccnc6)c4O[C@H]2[C@@H](OC(=O)c2cccnc2)C=C[C@H]3[C@H]1C5` [nicomorphine, 3,6-dinicotinoyl-morphine], in [3], the “lipid solubility higher than that of morphine” value is listed as “about 10 fold”.

`CN1CC[C@]23c4c5ccc(O)c4O[C@H]2[C@@H](O[C@@H]2O[C@H](C(=O)O)[C@@H](O)[C@H](O)[C@H]2O)C=C[C@H]3[C@H]1C5` [Example M-6-G, morphine-6-glucuronide]: the “antinociceptive potency relative to morphine, tail-flick” value in data set [4] is 61 fold. Further, the seizure activity entry in data set [1] (high doses) is recorded as “profound seizure activity”. In data set [1] (microinjection into the periaquaductal grey), the “potency relative to morphine following microinjection” value is given as “up to 20 fold”. Besides, the “analgesic potency relative to morphine” value with mice (given intrathecally) is 90 fold; with mice (given intravenously), 650 fold. The “analgesic effectiveness at the level of the spinal cord versus supraspinally” value with mice (spinal cord compared with supraspinal) is recorded as “approximately 5 fold”. Moreover, the “analgesia, effect relative to morphine” value with mice (subcutaneous administration, mice) is listed as “approximately twice”. Besides, the lipophilicity result in [2] is on record as “far more lipophilic than predicted”. Moreover, the “affinity, δ receptors” value at δ receptors is reported as “not”. Moreover, in [5], the “antinociceptive potency relative to morphine, writhing” value is 45 fold. For the same molecule, the “ability to displace ³H-naloxone” value in data set [6] is reported as “comparable to that of morphine”.

With `CN1CC[C@]23c4c5ccc(O)c4O[C@H]2[C@@H](O)C=C[C@H]3[C@H]1C5` [morphine], in the data set on mice (mouse, in vivo), the “analgesic potency at both levels of the neuraxis” value is “equipotent”.
